Reference: patent publication US5519155A, “Platinum complexes” (Johnson Matthey Public Limited Company, priority 1994, dated 1996)

Tests used:
A2780 = experiment: In vitro cytotoxicity (SRB assay), human ovarian carcinoma line A2780; type: cell-based; conditions: A2780 cells, exposure 48 to 96 hours
Protocol: (§1) Monolayer cells were trypsinized and seeded in 96-well microtiter plates at a density of 1×10^4 cells/well in 200 μl of growth medium. Cells were incubated overnight and test compounds were added to triplicate wells at various concentrations for a total of 48 to 96 hours. For toxicity analysis after drug exposure, the cells were fixed with trichloroacetic acid and stained for cellular protein content by incubation for 30 minutes with 0.4% (wt/vol) sulphorhodamine B (SRB) dissolved in 1% acetic acid. The unbound dye was removed by 1% acetic acid washes, and the bound dye was extracted with 10 mM Tris buffer. The amount of dye in solution was quantified by absorbance at 564 nm.

Adj/PC6 tumours = experiment: In vivo test in mice having Adj/PC6 tumours (LD50, ED90, TI); conditions: for ED90 / LD50 / TI (ratio of LD50 to ED90): mice, Adj/PC6 tumours
Protocol: The compounds of the invention were then tested in vivo in mice having Adj/PC6 tumours. The Adj/PC6 testing was carried out as described by P M Goddard et al presented in Sixth NCI-EORTC Symposium on New Drugs in Cancer Therapy 1989, which is a development of the basic method described by T A Connors et al, Chem Biol Interact 5,415 (1972). The animals were sacrificed when moribund. The compounds were administered parenterally (ip) or orally (po), or in the case of the Example 2 compound, iv at doses of 2.5, 5, 10 and 20 mg/kg (4 animals per dose group).
In the testing, LD50 and ED90 values in mg/kg body weight were determined in the conventional manner. The therapeutic index (TI) was calculated as the ratio of LD50 to ED90, and the results are shown below.

HX-62 = experiment: In vitro cytotoxicity (SRB assay), human ovarian carcinoma line HX-62; type: cell-based; conditions: HX-62 cells, exposure 48 to 96 hours
Protocol: as §1

41M = experiment: In vitro cytotoxicity (SRB assay), human ovarian carcinoma line 41M; type: cell-based; conditions: 41M cells, exposure 48 to 96 hours
Protocol: as §1

41M^R = experiment: In vitro cytotoxicity (SRB assay), human ovarian carcinoma line 41M^R; type: cell-based; conditions: 41M^R cells, exposure 48 to 96 hours
Protocol: as §1

CH^R = experiment: In vitro cytotoxicity (SRB assay), human ovarian carcinoma line CH^R; type: cell-based; conditions: CH^R cells, exposure 48 to 96 hours
Protocol: as §1

SKOV-3 = experiment: In vitro cytotoxicity (SRB assay), human ovarian carcinoma line SKOV-3; type: cell-based; conditions: SKOV-3 cells, exposure 48 to 96 hours
Protocol: as §1

A2780^R = experiment: In vitro cytotoxicity (SRB assay), human ovarian carcinoma line A2780^R; type: cell-based; conditions: A2780^R cells, exposure 48 to 96 hours
Protocol: as §1

CH1 = experiment: In vitro cytotoxicity (SRB assay), human ovarian carcinoma line CH1; type: cell-based; conditions: CH1 cells, exposure 48 to 96 hours
Protocol: as §1

[1] = i.v., doses 2.5, 5, 10 and 20 mg/kg

SMILES	IC50 (A2780)	ED90 (Adj/PC6 tumours; i.p.)	LD50 (Adj/PC6 tumours; i.p.)	TI (ratio of LD50 to ED90) (Adj/PC6 tumours; i.p.)	ED90 (Adj/PC6 tumours; [1])	LD50 (Adj/PC6 tumours; [1])	TI (ratio of LD50 to ED90) (Adj/PC6 tumours; [1])	therapeutic index, oral route compared to parenteral administration (Adj/PC6 tumours; oral vs parenteral, in words)	ED90 (Adj/PC6 tumours; p.o.)	LD50 (Adj/PC6 tumours; p.o.)	TI (ratio of LD50 to ED90) (Adj/PC6 tumours; p.o.)	IC50 (HX-62)	IC50 (41M)	IC50 (41M^R)	IC50 (CH^R)	IC50 (SKOV-3)	IC50 (A2780^R)	IC50 (CH1)
CC(=O)[O][Pt]([OH])([OH])[O]C(C)=O.N.NC1CCCCC1 [Example 2, c,t,c-[Pt(OH)2 (OAc)2 NH3 (c-C6 H11 NH2)]]	4.2 µM	4.2 mg/kg	17.5 mg/kg	4.2	< 2.5 mg/kg	14 mg/kg	> 5.6	greater therapeutic index	42 mg/kg	670 mg/kg	16	37 µM	6.5 µM	4.3 µM	1.35 µM	21 µM	3.7 µM	0.74 µM
CC(C)N.CC(C)N.C[O][Pt]([OH])([O]C(C)=O)[O]C(C)=O [Example 7, c,t,c-[Pt(OH)(OMe)(OAc)2 (i--C3 H7 NH2)2]]	–	–	–	–	–	–	–	–	–	–	–	12.5 µM	3.1 µM	2.5 µM	–	6.1 µM	–	0.26 µM
CC(=O)[O][Pt]([OH])([Cl])[O]C(C)=O.N.NC1CCCCC1 [Example 6, c,t,c-[PtCl(OH)(OAc)2 NH3 (c-C6 H11 NH2)]]	0.31 µM	–	–	–	–	–	–	–	–	–	–	3.1 µM	0.24 µM	0.44 µM	0.082 µM	1.15 µM	0.93 µM	0.022 µM
CC(C)N.CC(C)N.CCCCCC(=O)[O][Pt]([OH])([Cl])[O]C(=O)CCCCC [Example 3, c,t,c-[PtCl(OH)(O2 CC5 H11)2 (i-C3 H7 NH2)2]]	< 0.0025 µM	–	–	–	–	–	–	–	–	–	–	0.05 µM	< 0.0025 µM	< 0.0025 µM	< 0.0025 µM	0.0046 µM	0.0029 µM	< 0.0025 µM
CC(=O)[O][Pt]([OH])([Cl])[O]C(C)=O.CC(C)N.CC(C)N [Example 4, c,t,c-[PtCl(OH)(OAc)2 (i-C3 H7 NH2)2]]	0.65 µM	–	–	–	–	–	–	–	–	–	–	2.1 µM	0.89 µM	0.59 µM	0.21 µM	1.6 µM	1.9 µM	0.086 µM
CCCC(=O)[O][Pt]([Cl])([O]C)[O]C(=O)CCC.N.NC1CCCCC1 [Example 1, c,t,c-[PtCl(OMe)(O2 CC3 H7)2 NH3 (c-C6 H11 NH2)]]	–	2.6 mg/kg	17.5 mg/kg	6.7	–	–	–	–	–	–	–	0.22 µM	0.01 µM	0.013 µM	–	0.03 µM	–	0.002 µM
